Values joined by “and” are separate entries in the source; they are usually repeats but may differ in a detail not shown here. Identical values can stand only once. Inconclusive results and toxic doses are left out. Rule as the data show it: active = T/C of 150% or more; inactive = T/C below 125%.
Test system: L1210 leukemia ip in BDF1 mice, survival T/C
Experiment: NCI In Vivo Anticancer Drug Screen. Data for tumor model L1210 Leukemia (intraperitoneal) in B6D2F1 (BDF1) mice
Details: endpoint: mean survival time, higher = longer survival
In short: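 Antitumor effect is assessed in tumor-bearing animals. Survival in the compound arm is compared with a vehicle-dosed control arm and expressed as their quotient.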

[1] = dose: 12.5 mg/kg/injection, schedule: Q04DX003 (ip), vehicle: Klucel (hydroxypropylcellulose) (HPC)
[2] = dose: 100.0 mg/kg/injection, schedule: Q04DX002 (ip), vehicle: Klucel (hydroxypropylcellulose) (HPC)
[3] = dose: 100.0 mg/kg/injection, schedule: Q01DX009 (ip), vehicle: saline with Tween-80
[4] = dose: 200.0 mg/kg/injection, schedule: Q01DX009 (ip), vehicle: saline with Tween-80
[5] = dose: 400.0 mg/kg/injection, schedule: Q01DX009 (ip), vehicle: saline with Tween-80
[6] = dose: 100.0 mg/kg/injection, schedule: Q01DX001 (ip), vehicle: saline
[7] = dose: 200.0 mg/kg/injection, schedule: Q01DX001 (ip), vehicle: saline
[8] = dose: 400.0 mg/kg/injection, schedule: Q01DX001 (ip), vehicle: saline
[9] = dose: 50.0 mg/kg/injection, schedule: Q01DX009 (ip), vehicle: saline with Tween-80
[10] = dose: 100.0 mg/kg/injection, schedule: Q04DX003 (ip), vehicle: saline with Tween-80
[11] = dose: 200.0 mg/kg/injection, schedule: Q04DX003 (ip), vehicle: saline with Tween-80
[12] = dose: 25.0 mg/kg/injection, schedule: Q01DX009 (ip), vehicle: Klucel (hydroxypropylcellulose) (HPC)

Measured: T/C

CCCCOC(=O)c1ccc2c(ccc[n+]2C)c1
inactive: dose: 75.0 mg/kg/injection, schedule: Q01DX001 (ip), vehicle: saline 95 % of control | dose: 75.0 mg/kg/injection, schedule: Q04DX003 (ip), vehicle: saline 112 % of control | dose: 150.0 mg/kg/injection, schedule: Q01DX001 (ip), vehicle: saline 101 % of control | dose: 150.0 mg/kg/injection, schedule: Q04DX003 (ip), vehicle: saline 105 % of control | dose: 300.0 mg/kg/injection, schedule: Q01DX001 (ip), vehicle: saline 100 % of control | dose: 300.0 mg/kg/injection, schedule: Q04DX003 (ip), vehicle: saline 96 % of control

CCCCCCCCCCCCCCCCCc1cc(=O)n(-c2ccc(NC(=O)CCC(=O)OC)cc2)n1C
inactive: [1] 93 % of control | dose: 50.0 mg/kg/injection, schedule: Q04DX003 (ip), vehicle: Klucel (hydroxypropylcellulose) (HPC) 86 % of control

O=C(N/N=C/c1cccc([N+](=O)[O-])c1)c1ccc(O)cc1
inactive: [2] 102 % of control | dose: 200.0 mg/kg/injection, schedule: Q04DX002 (ip), vehicle: Klucel (hydroxypropylcellulose) (HPC) 105 % of control

O=C(NO)N/N=C/c1ccc(/C=N/NC(=O)NO)cc1
inactive: dose: 100.0 mg/kg/injection, schedule: Q01DX001 (ip), vehicle: other 100 % of control | [3] 101 % of control | dose: 100.0 mg/kg/injection, schedule: Q04DX003 (ip), vehicle: other 104 % of control | dose: 200.0 mg/kg/injection, schedule: Q01DX001 (ip), vehicle: other 100 % of control | [4] 95 % of control | dose: 200.0 mg/kg/injection, schedule: Q04DX003 (ip), vehicle: other 95 % of control | dose: 400.0 mg/kg/injection, schedule: Q01DX001 (ip), vehicle: other 102 % of control | [5] 101 % of control | dose: 400.0 mg/kg/injection, schedule: Q04DX003 (ip), vehicle: other 96 % of control

COc1cc(SSc2ccc(N)c(OC)c2)ccc1N
inactive: dose: 75.0 mg/kg/injection, schedule: Q01DX001 (ip), vehicle: carboxymethylcellulose (CMC) 105 % of control | dose: 150.0 mg/kg/injection, schedule: Q01DX001 (ip), vehicle: carboxymethylcellulose (CMC) 88 % of control

FC(F)(F)C(F)(F)C1=NS1(C(F)(C(F)(F)F)C(F)(F)F)C(F)(C(F)(F)F)C(F)(F)F
inactive: dose: 100.0 mg/kg/injection, schedule: Q01DX001 (ip), vehicle: acetone 94 % of control | dose: 200.0 mg/kg/injection, schedule: Q01DX001 (ip), vehicle: acetone 103 % of control | dose: 400.0 mg/kg/injection, schedule: Q01DX001 (ip), vehicle: acetone 101 % of control

O=C(CCl)Nc1ncc([N+](=O)[O-])s1
inactive: dose: 12.5 mg/kg/injection, schedule: Q04DX003 (ip), vehicle: saline with Tween-80 94 % of control | dose: 25.0 mg/kg/injection, schedule: Q04DX003 (ip), vehicle: saline with Tween-80 91 % of control | dose: 50.0 mg/kg/injection, schedule: Q04DX003 (ip), vehicle: saline with Tween-80 87 % of control

CCC(=O)NC1Cc2cc(C)cc(C)c21 (centres undefined)
inactive: dose: 25.0 mg/kg/injection, schedule: Q04DX002 (ip), vehicle: Klucel (hydroxypropylcellulose) (HPC) 113 % of control | dose: 50.0 mg/kg/injection, schedule: Q04DX002 (ip), vehicle: Klucel (hydroxypropylcellulose) (HPC) 92 % of control | [2] 100 % of control

CCOP(=O)(O)Cc1c(Cl)c(Cl)c(CP(=O)(O)OCC)c(Cl)c1Cl
inactive: [6] 110 % of control | [7] 104 % of control | [8] 107 % of control

c1cc2c3c(c1)/C(=N\N=C1/CCN4CCCc5cccc1c54)CCN3CCC2
inactive: [9] 91 % of control | [3] 89 % of control | [10] 92 % of control | [4] 92 % of control | [11] 89 % of control

N#CCc1nn(-c2ccccc2)c(N)c1C#N
inactive: dose: 25.0 mg/kg/injection, schedule: Q01DX001 (ip), vehicle: Klucel (hydroxypropylcellulose) (HPC) 93 % of control | dose: 50.0 mg/kg/injection, schedule: Q01DX001 (ip), vehicle: Klucel (hydroxypropylcellulose) (HPC) 100 % of control | dose: 100.0 mg/kg/injection, schedule: Q01DX001 (ip), vehicle: Klucel (hydroxypropylcellulose) (HPC) 107 % of control and 91 % of control | dose: 150.0 mg/kg/injection, schedule: Q01DX001 (ip), vehicle: Klucel (hydroxypropylcellulose) (HPC) 97 % of control

C[C@]12CC[C@@H]3c4ccc(OCC(=O)O)cc4CC[C@H]3[C@@H]1CCC2=O
inactive: dose: 75.0 mg/kg/injection, schedule: Q01DX009 (ip), vehicle: Klucel (hydroxypropylcellulose) (HPC) 97 % of control | dose: 150.0 mg/kg/injection, schedule: Q01DX009 (ip), vehicle: Klucel (hydroxypropylcellulose) (HPC) 90 % of control

CCCC/C(I)=C\S(=O)(=O)c1ccc(C)cc1
inactive: [6] 113 % of control | [7] 86 % of control | [8] 96 % of control

O=C(/C=C(\Br)c1ccccc1)c1ccccc1
inactive: dose: 25.0 mg/kg/injection, schedule: Q01DX005 (ip), vehicle: saline with Tween-80 93 % of control | dose: 25.0 mg/kg/injection, schedule: Q01DX009 (ip), vehicle: saline with Tween-80 88 % of control | dose: 25.0 mg/kg/injection, schedule: Q04DX002 (ip), vehicle: saline with Tween-80 102 % of control | dose: 50.0 mg/kg/injection, schedule: Q01DX005 (ip), vehicle: saline with Tween-80 97 % of control | [9] 98 % of control | dose: 50.0 mg/kg/injection, schedule: Q04DX002 (ip), vehicle: saline with Tween-80 109 % of control | dose: 100.0 mg/kg/injection, schedule: Q01DX005 (ip), vehicle: saline with Tween-80 108 % of control | dose: 100.0 mg/kg/injection, schedule: Q04DX002 (ip), vehicle: saline with Tween-80 91 % of control

CC(=O)c1sccc1C
inactive: dose: 6.25 mg/kg/injection, schedule: Q01DX009 (ip), vehicle: Klucel (hydroxypropylcellulose) (HPC) 93 % of control | dose: 12.5 mg/kg/injection, schedule: Q01DX009 (ip), vehicle: Klucel (hydroxypropylcellulose) (HPC) 92 % of control | [1] 101 % of control | [12] 90 % of control | dose: 25.0 mg/kg/injection, schedule: Q04DX003 (ip), vehicle: Klucel (hydroxypropylcellulose) (HPC) 92 % of control

CCC(=O)OC1CCC2C3CCC4=CC(=O)CCC4(C)C3CCC12C (centres undefined)
inactive: dose: 100.0 mg/kg/injection, schedule: Q01DX001 (ip), vehicle: carboxymethylcellulose (CMC) 107 % of control | dose: 200.0 mg/kg/injection, schedule: Q01DX001 (ip), vehicle: carboxymethylcellulose (CMC) 96 % of control | dose: 400.0 mg/kg/injection, schedule: Q01DX001 (ip), vehicle: carboxymethylcellulose (CMC) 96 % of control

CN=C(NC)c1ccc(NC(=O)c2ccc(C(=O)Nc3ccc(C(=NC)NC)c(OC)c3)c(Cl)c2)cc1OC
inactive: dose: 1.26 mg/kg/injection, schedule: Q01DX Z (ip), vehicle: saline 98 % of control

NC(=NC1CCC(C2CCC(N)CC2)CC1)C(N)=NC1CCC(C2CCC(N)CC2)CC1 (centres undefined)
inactive: [3] 98 % of control | [10] 100 % of control | [4] 98 % of control | [11] 91 % of control | [5] 98 % of control | dose: 400.0 mg/kg/injection, schedule: Q04DX003 (ip), vehicle: saline with Tween-80 95 % of control

COc1cc(/C=C/[N+](=O)[O-])ccc1O
inactive: [12] 98 % of control | dose: 50.0 mg/kg/injection, schedule: Q01DX009 (ip), vehicle: Klucel (hydroxypropylcellulose) (HPC) 98 % of control | dose: 100.0 mg/kg/injection, schedule: Q01DX009 (ip), vehicle: Klucel (hydroxypropylcellulose) (HPC) 102 % of control and 103 % of control

O=S(=O)(Nc1ccc(Cl)cc1Cl)c1ccccc1
inactive: dose: 100.0 mg/kg/injection, schedule: Q04DX003 (ip), vehicle: Klucel (hydroxypropylcellulose) (HPC) 103 % of control | dose: 200.0 mg/kg/injection, schedule: Q04DX003 (ip), vehicle: Klucel (hydroxypropylcellulose) (HPC) 103 % of control | dose: 400.0 mg/kg/injection, schedule: Q04DX003 (ip), vehicle: Klucel (hydroxypropylcellulose) (HPC) 103 % of control

CC(=O)CC(=O)n1c(=O)cc(C)c2ccccc21
inactive: dose: 75.0 mg/kg/injection, schedule: Q04DX003 (ip), vehicle: saline with Tween-80 117 % of control | dose: 150.0 mg/kg/injection, schedule: Q04DX003 (ip), vehicle: saline with Tween-80 98 % of control | dose: 300.0 mg/kg/injection, schedule: Q04DX003 (ip), vehicle: saline with Tween-80 98 % of control

Source: PubChem BioAssay AID248 (DTP/NCI, 2004)
